# Assay results as given in ChEMBL document CHEMBL3734659, “Identification of tris-(phenylalkyl)amines as new selective h5-HT2Breceptor antagonists” (Medchemcomm, 2015).
# pIC50, pKi: −log10 of the molar value. The source made the active and inactive calls. No cut-off for these calls is given here.
# How the values were obtained:
# [1] = molecular target: Alpha-1B adrenergic receptor (Homo sapiens) (UniProt P35368); assay: Displacement of [3H]Prazosin from human recombinant alpha 1B receptor expressed in HEKT cell membrane after 90 mins by scintillation counting method; assay type: cell membranes
# Sequence of Alpha-1B adrenergic receptor (Homo sapiens) (P35368 whole entry): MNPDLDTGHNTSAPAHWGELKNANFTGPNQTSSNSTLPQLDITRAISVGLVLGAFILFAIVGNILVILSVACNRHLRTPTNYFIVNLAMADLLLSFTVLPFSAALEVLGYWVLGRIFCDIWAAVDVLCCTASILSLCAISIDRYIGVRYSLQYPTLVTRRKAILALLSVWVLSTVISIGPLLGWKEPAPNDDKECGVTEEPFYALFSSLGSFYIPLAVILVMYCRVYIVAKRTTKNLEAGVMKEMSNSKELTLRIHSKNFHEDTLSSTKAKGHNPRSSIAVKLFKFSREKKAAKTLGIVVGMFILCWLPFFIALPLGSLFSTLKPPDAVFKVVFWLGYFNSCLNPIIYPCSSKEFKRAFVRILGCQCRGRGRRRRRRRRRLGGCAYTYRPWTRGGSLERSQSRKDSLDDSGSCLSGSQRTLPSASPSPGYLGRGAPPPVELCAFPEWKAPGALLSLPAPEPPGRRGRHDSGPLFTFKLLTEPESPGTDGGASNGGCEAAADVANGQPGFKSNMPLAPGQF
# [2] = molecular target: Muscarinic acetylcholine receptor M1 (Homo sapiens) (UniProt P11229); assay: Displacement of [3H]QNB from human Muscarinic acetylcholine M1 receptor stably expressed in CHO cell after 90 mins by scintillation counting method; assay type: cell-based
# [3] = molecular target: Alpha-1A adrenergic receptor (Homo sapiens, UniProt P35348); assay: Displacement of [3H]Prazosin from human recombinant alpha 1A receptor after 90 mins by scintillation counting method
# Sequence of Alpha-1A adrenergic receptor (P35348 whole entry): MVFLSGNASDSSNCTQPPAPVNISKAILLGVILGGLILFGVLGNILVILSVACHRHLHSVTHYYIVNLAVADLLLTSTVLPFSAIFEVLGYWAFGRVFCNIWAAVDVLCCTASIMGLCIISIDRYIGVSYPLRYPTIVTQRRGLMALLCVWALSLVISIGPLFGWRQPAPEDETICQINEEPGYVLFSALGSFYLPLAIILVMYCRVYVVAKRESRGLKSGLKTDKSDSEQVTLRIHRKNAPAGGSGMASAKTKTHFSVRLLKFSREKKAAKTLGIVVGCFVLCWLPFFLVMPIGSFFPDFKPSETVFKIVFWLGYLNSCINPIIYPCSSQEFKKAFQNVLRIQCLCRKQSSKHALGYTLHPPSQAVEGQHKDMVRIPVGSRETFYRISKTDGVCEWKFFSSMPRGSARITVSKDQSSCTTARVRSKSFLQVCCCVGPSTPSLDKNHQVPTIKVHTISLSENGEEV
# [4] = molecular target: Alpha-2B adrenergic receptor (Homo sapiens, UniProt P18089); assay: Displacement of [3H]Rauwolscine from human recombinant alpha 2B receptor expressed in HEKT cells after 90 mins by scintillation counting method; assay type: cell-based
# [5] = molecular target: T1, 5-hydroxytryptamine receptor 2C (Homo sapiens, UniProt P28335); assay: Antagonist activity at human recombinant 5-HT2C receptor expressed in Flp-In HEK cells in the presence of agonist preincubated for 10 mins by FLIPR based calcium mobilization assay; assay type: functional, cell-based, HEK293
# T1 sequence (P28335 whole entry): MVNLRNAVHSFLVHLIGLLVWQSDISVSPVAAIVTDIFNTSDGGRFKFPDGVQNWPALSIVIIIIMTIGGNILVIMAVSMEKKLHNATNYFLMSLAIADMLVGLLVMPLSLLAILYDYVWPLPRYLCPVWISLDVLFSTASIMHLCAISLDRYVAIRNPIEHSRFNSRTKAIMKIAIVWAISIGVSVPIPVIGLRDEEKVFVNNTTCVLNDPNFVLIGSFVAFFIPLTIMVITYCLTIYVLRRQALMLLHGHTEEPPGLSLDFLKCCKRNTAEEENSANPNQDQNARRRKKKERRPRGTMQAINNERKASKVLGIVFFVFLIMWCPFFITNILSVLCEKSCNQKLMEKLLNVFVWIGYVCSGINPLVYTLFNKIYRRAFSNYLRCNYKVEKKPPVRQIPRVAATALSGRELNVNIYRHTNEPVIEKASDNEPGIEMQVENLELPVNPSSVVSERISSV
# [6] = molecular target: Muscarinic acetylcholine receptor M4 (Homo sapiens) (UniProt P08173); assay: Displacement of [3H]NMS from human Muscarinic acetylcholine M4 receptor stably expressed in CHO cell after 90 mins by scintillation counting method; assay type: cell-based
# Sequence of Muscarinic acetylcholine receptor M4 (Homo sapiens) (P08173 whole entry): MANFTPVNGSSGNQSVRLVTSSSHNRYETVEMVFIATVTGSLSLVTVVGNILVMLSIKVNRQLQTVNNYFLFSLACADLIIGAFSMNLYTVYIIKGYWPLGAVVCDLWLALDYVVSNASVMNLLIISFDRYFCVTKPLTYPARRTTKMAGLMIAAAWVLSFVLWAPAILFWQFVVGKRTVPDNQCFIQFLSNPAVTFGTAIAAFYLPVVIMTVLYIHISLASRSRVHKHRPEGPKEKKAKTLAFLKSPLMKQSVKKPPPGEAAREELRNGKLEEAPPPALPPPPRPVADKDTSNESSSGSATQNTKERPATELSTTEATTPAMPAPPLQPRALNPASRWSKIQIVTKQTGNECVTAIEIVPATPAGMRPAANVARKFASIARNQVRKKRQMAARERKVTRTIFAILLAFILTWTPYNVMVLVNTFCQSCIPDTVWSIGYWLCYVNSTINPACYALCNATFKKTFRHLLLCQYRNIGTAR
# [7] = molecular target: 5-hydroxytryptamine receptor 3A (Homo sapiens) (UniProt P46098); assay: Displacement of [3H]GR65630 from human recombinant 5-HT3 receptor expressed in HEKT cell membrane after 90 mins by scintillation counting method; assay type: cell membranes
# [8] = molecular target: T2, 5-hydroxytryptamine receptor 2B (Homo sapiens, UniProt P41595); assay: Antagonist activity at human recombinant 5-HT2B receptor expressed in Flp-In HEK cells in the presence of agonist preincubated for 10 mins by FLIPR based calcium mobilization assay; assay type: functional, cell-based, HEK293
# T2 sequence (P41595 whole entry): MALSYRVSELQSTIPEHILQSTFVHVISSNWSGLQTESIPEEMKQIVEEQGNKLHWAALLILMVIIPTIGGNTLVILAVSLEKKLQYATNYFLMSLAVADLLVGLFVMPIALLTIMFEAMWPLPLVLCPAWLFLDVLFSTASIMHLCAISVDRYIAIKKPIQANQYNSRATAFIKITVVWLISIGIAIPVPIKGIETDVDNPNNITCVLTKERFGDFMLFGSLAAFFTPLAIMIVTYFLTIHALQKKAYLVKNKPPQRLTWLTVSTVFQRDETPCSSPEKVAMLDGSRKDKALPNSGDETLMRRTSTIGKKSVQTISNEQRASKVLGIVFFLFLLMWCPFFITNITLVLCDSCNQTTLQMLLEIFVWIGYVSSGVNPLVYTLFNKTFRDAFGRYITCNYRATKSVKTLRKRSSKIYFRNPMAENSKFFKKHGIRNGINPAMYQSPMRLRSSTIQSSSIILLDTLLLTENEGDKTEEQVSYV
# [9] = molecular target: T3, 5-hydroxytryptamine receptor 2A (Homo sapiens, UniProt P28223); assay: Displacement of [3H]ketanserin from human recombinant 5-HT2A receptor expressed in HEKT cell membrane at 10 uM after 90 mins by scintillation counting method; assay type: cell membranes
# T3 sequence (P28223 whole entry): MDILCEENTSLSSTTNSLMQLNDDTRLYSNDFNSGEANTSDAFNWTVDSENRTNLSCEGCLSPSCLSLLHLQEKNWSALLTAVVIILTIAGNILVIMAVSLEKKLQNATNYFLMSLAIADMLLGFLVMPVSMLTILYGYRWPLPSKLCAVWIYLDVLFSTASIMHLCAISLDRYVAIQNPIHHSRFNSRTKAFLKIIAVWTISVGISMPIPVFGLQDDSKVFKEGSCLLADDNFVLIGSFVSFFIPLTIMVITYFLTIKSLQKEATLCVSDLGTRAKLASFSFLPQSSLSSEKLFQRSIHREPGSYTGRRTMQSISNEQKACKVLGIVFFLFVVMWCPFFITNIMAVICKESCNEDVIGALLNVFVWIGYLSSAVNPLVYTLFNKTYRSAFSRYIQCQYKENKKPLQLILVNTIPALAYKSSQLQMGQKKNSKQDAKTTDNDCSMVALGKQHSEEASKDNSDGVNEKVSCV
# [10] = molecular target: 5-hydroxytryptamine receptor 1B (Homo sapiens) (UniProt P28222); assay: Displacement of [3H]5-CT from human recombinant 5-HT1B receptor stably expressed in HEK cell membrane after 90 mins by scintillation counting method; assay type: cell membranes; conditions: HEK293
# [11] = molecular target: Beta-1 adrenergic receptor (Homo sapiens, UniProt P08588); assay: Displacement of [3H]CGP12177 human recombinant beta 1 adrenergic recptor expressed in CHO Flp-In cells after 90 mins by scintillation counting method; assay type: cell-based
# [12] = molecular target: Kappa-type opioid receptor (Homo sapiens, UniProt P41145); assay: Displacement of [3H]U69593 from human kappa-opioid receptor stably expressed in HEK cell membrane after 90 mins by scintillation counting method; assay type: cell membranes, HEK293
# [13] = molecular target: Sodium-dependent noradrenaline transporter (Homo sapiens, UniProt P23975); assay: Displacement of [3H]Nisoxetine from human norepinephrine transporter stably expressed in HEK293 cells after 30 mins by neurotransmitter transporter uptake assay; assay type: cell-based
# Sequence of Sodium-dependent noradrenaline transporter (P23975 whole entry): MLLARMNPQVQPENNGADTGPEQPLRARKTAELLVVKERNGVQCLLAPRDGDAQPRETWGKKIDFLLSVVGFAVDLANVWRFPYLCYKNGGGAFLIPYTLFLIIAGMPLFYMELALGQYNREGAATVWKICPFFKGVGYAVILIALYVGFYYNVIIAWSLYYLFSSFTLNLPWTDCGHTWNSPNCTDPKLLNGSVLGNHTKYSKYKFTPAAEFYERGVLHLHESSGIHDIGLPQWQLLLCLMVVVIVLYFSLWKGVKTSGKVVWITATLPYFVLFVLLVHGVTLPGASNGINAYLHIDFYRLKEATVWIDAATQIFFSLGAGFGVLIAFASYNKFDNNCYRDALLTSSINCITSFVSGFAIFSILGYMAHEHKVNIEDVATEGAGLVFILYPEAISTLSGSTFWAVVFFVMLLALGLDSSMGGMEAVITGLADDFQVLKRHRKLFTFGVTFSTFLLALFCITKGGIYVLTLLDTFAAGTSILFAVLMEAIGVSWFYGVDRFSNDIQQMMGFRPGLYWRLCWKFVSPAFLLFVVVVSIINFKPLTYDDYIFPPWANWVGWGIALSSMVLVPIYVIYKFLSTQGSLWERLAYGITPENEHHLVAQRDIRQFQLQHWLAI
# [14] = molecular target: Muscarinic acetylcholine receptor M2 (Homo sapiens) (UniProt P08172); assay: Displacement of [3H]QNB from human Muscarinic acetylcholine M2 receptor stably expressed in CHO cell after 90 mins by scintillation counting method; assay type: cell-based
# Sequence of Muscarinic acetylcholine receptor M2 (Homo sapiens) (P08172 whole entry): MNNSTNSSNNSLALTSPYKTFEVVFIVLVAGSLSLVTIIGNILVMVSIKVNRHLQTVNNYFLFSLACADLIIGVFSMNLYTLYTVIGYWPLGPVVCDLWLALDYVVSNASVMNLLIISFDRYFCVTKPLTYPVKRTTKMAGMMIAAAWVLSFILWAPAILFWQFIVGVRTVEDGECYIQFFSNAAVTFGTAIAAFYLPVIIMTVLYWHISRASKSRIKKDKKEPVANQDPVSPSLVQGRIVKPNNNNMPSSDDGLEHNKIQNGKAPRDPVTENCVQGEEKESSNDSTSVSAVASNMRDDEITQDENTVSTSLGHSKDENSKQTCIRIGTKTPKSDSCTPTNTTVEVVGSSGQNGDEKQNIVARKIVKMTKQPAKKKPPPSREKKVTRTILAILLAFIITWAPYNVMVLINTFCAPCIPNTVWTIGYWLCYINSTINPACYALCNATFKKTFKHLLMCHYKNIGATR
# [15] = molecular target: Sodium-dependent serotonin transporter (Homo sapiens, UniProt P31645); assay: Displacement of [3H]Citalopram from human serotonin transporter transporter stably expressed in HEK293 cells after 30 mins by neurotransmitter transporter uptake assay; assay type: cell-based
# [16] = molecular target: T4, 5-hydroxytryptamine receptor 2C (Homo sapiens) (UniProt P28335); assay: Agonist activity at human recombinant 5-HT2C receptor expressed in Flp-In HEK cells preincubated for 10 mins by FLIPR based calcium mobilization assay; assay type: functional, cell-based; conditions: HEK293
# T4 sequence (whole entry): T1 sequence (P28335 whole entry)
# [17] = molecular target: Beta-2 adrenergic receptor (Homo sapiens) (UniProt P07550); assay: Displacement of [3H]CGP12177 from human recombinant beta 2 receptor expressed in HEK Flp-In cells after 90 mins by scintillation counting method; assay type: cell-based; conditions: HEK293
# [18] = molecular target: T3, 5-hydroxytryptamine receptor 2A; assay: Displacement of [3H]ketanserin from human recombinant 5-HT2A receptor expressed in HEKT cell membrane after 90 mins by scintillation counting method; assay type: cell-based
# [19] = molecular target: Delta-type opioid receptor (Homo sapiens) (UniProt P41143); assay: Displacement of [3H]DADLE from human delta-opioid receptor stably expressed in HEK cell membrane after 90 mins by scintillation counting method; assay type: cell membranes; conditions: HEK293
# [20] = molecular target: D(4) dopamine receptor (Homo sapiens, UniProt P21917); assay: Displacement of [3H]N-methylspiperone from human recombinant dopamine D4 receptor after 90 mins by scintillation counting method
# Sequence of D(4) dopamine receptor (P21917 whole entry): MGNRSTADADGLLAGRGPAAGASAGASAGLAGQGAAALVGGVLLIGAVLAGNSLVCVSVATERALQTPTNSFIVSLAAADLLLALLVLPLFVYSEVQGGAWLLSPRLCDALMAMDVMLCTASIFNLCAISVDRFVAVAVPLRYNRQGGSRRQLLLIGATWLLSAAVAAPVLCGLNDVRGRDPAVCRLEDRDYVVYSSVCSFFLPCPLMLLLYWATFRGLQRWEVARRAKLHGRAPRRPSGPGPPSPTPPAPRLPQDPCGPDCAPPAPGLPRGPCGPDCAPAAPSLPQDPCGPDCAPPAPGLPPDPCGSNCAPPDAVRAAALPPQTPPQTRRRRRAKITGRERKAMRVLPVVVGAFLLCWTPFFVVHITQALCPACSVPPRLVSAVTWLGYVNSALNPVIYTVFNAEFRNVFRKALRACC
# [21] = molecular target: Mu-type opioid receptor (Homo sapiens, UniProt P35372); assay: Displacement of [3H]DAMGO from human mu-opioid receptor stably expressed in HEK cell membrane after 90 mins by scintillation counting method; assay type: cell membranes, HEK293
# Sequence of Mu-type opioid receptor (P35372 whole entry): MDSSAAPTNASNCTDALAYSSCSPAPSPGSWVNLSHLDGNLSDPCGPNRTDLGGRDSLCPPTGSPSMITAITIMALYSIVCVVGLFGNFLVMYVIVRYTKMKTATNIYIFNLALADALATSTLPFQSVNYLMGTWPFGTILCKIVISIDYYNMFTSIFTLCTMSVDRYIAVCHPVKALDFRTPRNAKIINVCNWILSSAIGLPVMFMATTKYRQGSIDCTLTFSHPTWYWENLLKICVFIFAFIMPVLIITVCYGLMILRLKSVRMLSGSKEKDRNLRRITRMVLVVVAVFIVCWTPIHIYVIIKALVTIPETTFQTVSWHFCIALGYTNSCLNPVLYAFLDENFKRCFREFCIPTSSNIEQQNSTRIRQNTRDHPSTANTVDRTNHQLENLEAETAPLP
# [22] = test system: HEK293; assay: Selectivity ratio of Ki for human recombinant 5-HT2A receptor expressed in HEKT cell membrane to Ki for human recombinant 5-HT2B receptor stably expressed in HEK cells; assay type: cell-based
# [23] = molecular target: Muscarinic acetylcholine receptor M3 (Homo sapiens) (UniProt P20309); assay: Displacement of [3H]QNB from human Muscarinic acetylcholine M3 receptor stably expressed in CHO cell after 90 mins by scintillation counting method; assay type: cell-based
# Sequence of Muscarinic acetylcholine receptor M3 (Homo sapiens) (P20309 whole entry, looked up): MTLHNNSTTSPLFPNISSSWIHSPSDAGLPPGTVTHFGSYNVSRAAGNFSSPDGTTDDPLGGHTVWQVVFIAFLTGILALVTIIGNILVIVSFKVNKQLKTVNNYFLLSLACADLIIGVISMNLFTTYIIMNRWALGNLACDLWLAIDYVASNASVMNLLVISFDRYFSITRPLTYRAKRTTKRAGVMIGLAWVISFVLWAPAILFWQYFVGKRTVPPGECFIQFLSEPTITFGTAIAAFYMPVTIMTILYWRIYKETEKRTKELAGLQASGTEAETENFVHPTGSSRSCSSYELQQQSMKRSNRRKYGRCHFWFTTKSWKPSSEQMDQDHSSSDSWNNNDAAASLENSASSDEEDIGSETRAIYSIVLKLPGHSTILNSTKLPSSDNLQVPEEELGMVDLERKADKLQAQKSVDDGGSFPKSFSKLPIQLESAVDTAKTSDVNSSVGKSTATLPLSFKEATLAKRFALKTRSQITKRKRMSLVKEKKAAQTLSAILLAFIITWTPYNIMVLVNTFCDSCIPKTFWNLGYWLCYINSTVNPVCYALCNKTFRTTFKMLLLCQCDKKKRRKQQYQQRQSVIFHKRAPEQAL
# [24] = molecular target: Alpha-2C adrenergic receptor (Homo sapiens, UniProt P18825); assay: Displacement of [3H]Rauwolscine from human recombinant alpha 2C receptor stably expressed in MDCK cells after 90 mins by scintillation counting method; assay type: cell-based
# [25] = Displacement of [3H]DTG from sigma 2 receptor stable expressed in rat PC12 cells after 90 mins by scintillation counting method; assay type: cell-based; conditions: pc-12
# [26] = molecular target: D(2) dopamine receptor (Homo sapiens, UniProt P14416); assay: Displacement of [3H]N-methylspiperone from human recombinant dopamine D2 receptor expressed in stable fibroblast after 90 mins by scintillation counting method
# [27] = molecular target: T2, 5-hydroxytryptamine receptor 2B; assay: Displacement of [3H]LSD from human recombinant 5-HT2B receptor stably expressed in HEK cell membrane at 10 uM after 90 mins by scintillation counting method; assay type: cell membranes; conditions: HEK293
# [28] = species on record: Rattus norvegicus; assay: Displacement of [3H]Flunitrazepam from rat brain BZP after 90 mins by scintillation counting method
# [29] = test system: HEK293; assay: Selectivity ratio of Ki for human recombinant 5-HT2C receptor to Ki for human recombinant 5-HT2B receptor stably expressed in HEK cell membrane; assay type: cell-based
smiles,measurement,setting,value
COc1ccc(CCN(CCCc2ccccc2)CCc2ccc3c(c2)OCO3)cc1OC,Activity,[1],inactive
same,Activity,[2],inactive
same,pKi,[3],6.48
same,pKi,[4],7.54
same,pIC50,[5],4.90
same,Activity,[6],inactive
same,Activity,[7],inactive
same,pIC50,[8],6.10
same,inhibition,[9],> 50%
same,Activity,[10],inactive
same,pKi,[11],5.72
same,pKi,[12],6.44
same,pKi,[13],7.96
same,Activity,[14],inactive
same,pKi,[15],6.00
same,Activity,[16],inactive
same,Activity,[17],inactive
same,pKi,[18],6.78
same,Activity,[19],inactive
same,pKi,[20],6.07
same,pKi,[21],6.47
same,Ratio Ki,[22],6
same,Activity,[23],inactive
same,pKi,[24],6.37
same,pKi,[25],6.62
same,pKi,[26],5.76
same,inhibition,[27],> 50%
same,Activity,[28],inactive
same,Ratio Ki,[29],15
